PubChem BioAssay (NCI)
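Step 1: Grow cells in 96-well plates. Step 2: Expose to compound for 48 hours at 5 concentrations. Step 3: Interpolate endpoints linearly; if unreached, use highest concentration. GI50: concentration for 50% inhibition of growth. At the TGI there is no net growth.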

Assays:
Assay in all cases: NCI-60 cell line screen, 48 h
[1] = system: A498 renal
[2] = system: CCRF-CEM leukemia
[3] = system: RPMI-8226 leukemia
[4] = system: LOX IMVI melanoma
[5] = system: 786-0 renal
[6] = system: KM12 colon
[7] = system: NCI-H460 lung
[8] = system: K-562 leukemia
[9] = system: UO-31 renal
[10] = system: OVCAR-5 ovarian

C#C[C@]1(O)CC[C@H]2[C@@H]3CC=C4c5nc(Nc6ccc(OC)cc6OC)sc5CC[C@]4(C)[C@H]3CC[C@@]21C
GI50 [1]: 0.152 µM | TGI [1]: 1.23 µM | GI50 [2]: 0.544 µM | TGI [2]: 11 µM | GI50 [3]: 0.248 µM | TGI [3]: 0.804 µM | GI50 [4]: 1.45 µM | TGI [4]: 2.97 µM | GI50 [5]: 0.504 µM | TGI [5]: 2.6 µM | GI50 [6]: 2.07 µM | TGI [6]: 5.57 µM | GI50 [7]: 2.65 µM | TGI [7]: 10.3 µM | GI50 [8]: 0.525 µM | TGI [8]: 13 µM | GI50 [9]: 1.36 µM | TGI [9]: 5.16 µM | GI50 [10]: 2.53 µM | TGI [10]: 12.2 µM

COCCOC(C)C(/C=N/NC(N)=S)=N/NC(N)=S (stereo not drawn)
GI50 [1]: > 100 µM | TGI [1]: > 100 µM | GI50 [3]: 0.0725 µM | TGI [3]: > 100 µM | TGI [4]: > 100 µM | GI50 [5]: > 100 µM | TGI [5]: > 100 µM | GI50 [6]: > 100 µM | TGI [6]: > 100 µM | GI50 [7]: > 100 µM | TGI [7]: > 100 µM | GI50 [8]: 0.0574 µM | TGI [8]: > 100 µM | GI50 [9]: 0.0513 µM | TGI [9]: > 100 µM | GI50 [10]: > 100 µM | TGI [10]: > 100 µM

O=C1C=C(Br)C(=O)C(Br)=C1
TGI [1]: > 100 µM | TGI [2]: > 81.6 µM | TGI [3]: > 82.2 µM | TGI [4]: > 31.6 µM | TGI [5]: > 100 µM | TGI [6]: > 100 µM | TGI [7]: > 100 µM | TGI [8]: > 100 µM | TGI [9]: > 100 µM | TGI [10]: > 100 µM

COc1cc(/C=C2\C(=O)N(c3c(Cl)cccc3Cl)c3ccccc32)cc(OC)c1O
GI50 [1]: 5.59 µM | TGI [1]: 16.1 µM | GI50 [2]: 0.555 µM | TGI [2]: 19.9 µM | GI50 [3]: 0.718 µM | TGI [3]: 11.7 µM | GI50 [4]: 0.303 µM | TGI [4]: 4.65 µM | GI50 [5]: 1.49 µM | TGI [5]: 17.4 µM | GI50 [6]: 0.654 µM | TGI [6]: 2.69 µM | GI50 [7]: 0.342 µM | TGI [7]: 4.58 µM | GI50 [8]: 0.243 µM | TGI [8]: > 66.6 µM | GI50 [9]: 0.769 µM | TGI [9]: 12.3 µM | GI50 [10]: 8.04 µM | TGI [10]: 25 µM

Cc1ccc(C(=O)/C=C/c2ccccc2Cl)cc1
TGI [1]: 72.5 µM | TGI [2]: 42.6 µM | TGI [3]: 44.4 µM | TGI [5]: 29.7 µM | TGI [6]: 30.2 µM | TGI [7]: 29.1 µM | TGI [8]: 46 µM | TGI [9]: 32.8 µM | TGI [10]: 41.9 µM

COC(=O)/C(=C/N1CCN(C(=O)c2ccco2)C1=S)C(C)=O
GI50 [3]: 5.49 µM | TGI [3]: > 100 µM | GI50 [4]: 1.59 µM | TGI [4]: 3.99 µM | GI50 [5]: 11.2 µM | TGI [5]: 27.7 µM | GI50 [6]: 3.04 µM | TGI [6]: 9.78 µM | GI50 [7]: 2.19 µM | TGI [7]: 5.88 µM | GI50 [8]: 10.2 µM | TGI [8]: > 100 µM | GI50 [9]: 13.5 µM | TGI [9]: 30.9 µM

O=C1OC(c2ccc([N+](=O)[O-])cc2)=N/C1=C\c1ccc(O)cc1
TGI [1]: > 100 µM | TGI [2]: > 100 µM | TGI [3]: > 100 µM | TGI [4]: > 100 µM | TGI [5]: > 100 µM | TGI [6]: > 100 µM | TGI [7]: > 100 µM | TGI [8]: > 100 µM | TGI [10]: > 100 µM

NC(C(=O)O)C(N)C(=O)O (stereo not drawn)
TGI [1]: > 100 µM | TGI [3]: > 100 µM | TGI [4]: > 100 µM | TGI [5]: > 100 µM | TGI [6]: > 100 µM | TGI [7]: > 100 µM | TGI [8]: > 100 µM | TGI [9]: > 100 µM | TGI [10]: > 100 µM
